From the NIST ThermoML archive (doi:10.1016/j.jct.2012.09.031)
“And” between values parts separate entries of the source, which are not always exact repeats. Equal entries are not always repeated. Numbers after ± are expanded uncertainties.

Experiments:
[1] = Crystal, Calculated from knudsen effusion weight loss
[2] = molar enthalpy of vaporization or sublimation; settings: 298.15 K; Crystal; Static calorimetry

O=[N+]([O-])c1cccc(I)c1 [1-iodo-3-nitrobenzene]
[1]
Settings | vapor or sublimation pressure
287.14 K | 0.000148 ± 2.1e-05 kPa and 0.000145 ± 2.1e-05 kPa
289.15 K | 0.000187 ± 2.1e-05 kPa and 0.000191 ± 2.1e-05 kPa
291.13 K | 0.000238 ± 2.2e-05 kPa
293.13 K | 0.000309 ± 2.3e-05 kPa and 0.000314 ± 2.3e-05 kPa
295.15 K | 0.000392 ± 2.4e-05 kPa and 0.0004 ± 2.5e-05 kPa
297.14 K | 0.000508 ± 2.7e-05 kPa and 0.000506 ± 2.7e-05 kPa
299.14 K | 0.000641 ± 3e-05 kPa and 0.000643 ± 3e-05 kPa
301.14 K | 0.000812 ± 3.5e-05 kPa
303.13 K | 0.001033 ± 8.1e-05 kPa and 0.001074 ± 8.5e-05 kPa

Settings | molar enthalpy [kcal/mol]
[2] | 21.4 ± 0.717

O=[N+]([O-])c1ccccc1I [1-iodo-2-nitrobenzene]
[1]
Settings | vapor or sublimation pressure
287.15 K | 8.2e-05 ± 2e-05 kPa and 8.5e-05 ± 2e-05 kPa
289.14 K | 0.000107 ± 2e-05 kPa and 0.000103 ± 2e-05 kPa
291.13 K | 0.000139 ± 2.1e-05 kPa and 0.000141 ± 2.1e-05 kPa and 0.000135 ± 2.1e-05 kPa
293.14 K | 0.000175 ± 2.1e-05 kPa and 0.000178 ± 2.1e-05 kPa and 0.000184 ± 2.1e-05 kPa
295.15 K | 0.000224 ± 2.2e-05 kPa and 0.000226 ± 2.2e-05 kPa and 0.00023 ± 2.2e-05 kPa
297.14 K | 0.000283 ± 2.2e-05 kPa and 0.000289 ± 2.2e-05 kPa and 0.000288 ± 2.2e-05 kPa
299.14 K | 0.000373 ± 2.4e-05 kPa and 0.000375 ± 2.4e-05 kPa and 0.000374 ± 2.4e-05 kPa
301.14 K | 0.000458 ± 2.6e-05 kPa and 0.000466 ± 2.6e-05 kPa and 0.000479 ± 2.6e-05 kPa
303.13 K | 0.000609 ± 2.9e-05 kPa and 0.000616 ± 3e-05 kPa
305.14 K | 0.000767 ± 3.4e-05 kPa and 0.000768 ± 3.4e-05 kPa and 0.000777 ± 3.4e-05 kPa
307.14 K | 0.000974 ± 4e-05 kPa and 0.000975 ± 4e-05 kPa and 0.000998 ± 4.1e-05 kPa

Settings | molar enthalpy [kcal/mol]
[2] | 21.5 ± 0.765

O=[N+]([O-])c1ccc(I)cc1 [1-iodo-4-nitrobenzene]
[1]
Settings | vapor or sublimation pressure
311.18 K | 9.7e-05 ± 2e-05 kPa and 9.4e-05 ± 2e-05 kPa and 9.3e-05 ± 2e-05 kPa
313.17 K | 0.000121 ± 2e-05 kPa and 0.000114 ± 2e-05 kPa and 0.000118 ± 2e-05 kPa
315.11 K | 0.000151 ± 2.1e-05 kPa and 0.00015 ± 2.1e-05 kPa and 0.000152 ± 2.1e-05 kPa
317.18 K | 0.000179 ± 2.1e-05 kPa and 0.000193 ± 2.1e-05 kPa
319.13 K | 0.00023 ± 2.2e-05 kPa and 0.000226 ± 2.2e-05 kPa
321.1 K | 0.000282 ± 2.2e-05 kPa and 0.000277 ± 2.2e-05 kPa and 0.000283 ± 2.2e-05 kPa
323.18 K | 0.000355 ± 2.4e-05 kPa and 0.000354 ± 2.4e-05 kPa and 0.000359 ± 2.4e-05 kPa
325.18 K | 0.000451 ± 2.6e-05 kPa and 0.000436 ± 2.5e-05 kPa and 0.000455 ± 2.6e-05 kPa
327.12 K | 0.00055 ± 2.8e-05 kPa and 0.000546 ± 2.8e-05 kPa and 0.000552 ± 2.8e-05 kPa
329.18 K | 0.000672 ± 3.1e-05 kPa and 0.000673 ± 3.1e-05 kPa
331.18 K | 0.000856 ± 3.6e-05 kPa and 0.00083 ± 3.6e-05 kPa and 0.000857 ± 3.6e-05 kPa
333.11 K | 0.001045 ± 8.2e-05 kPa and 0.001036 ± 8.1e-05 kPa and 0.001018 ± 7.9e-05 kPa

Settings | molar enthalpy [kcal/mol]
[2] | 23.5 ± 0.813
